PubChem BioAssay (NCI)
Where “and” joins values, the source holds several entries; their conditions need not be identical. Equal values may be shown once.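 48-hour exposure; five concentrations; linearly interpolated endpoints. GI50 marks 50% less growth. TGI: concentration producing complete growth inhibition.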

Tests used:
Test in all cases: NCI-60 cell line screen, 48 h
A549 NSCLC = test system: A549 NSCLC
CCRF-CEM leukemia = test system: CCRF-CEM leukemia
HCT-116 colon = test system: HCT-116 colon
HL-60(TB) leukemia = test system: HL-60(TB) leukemia
K-562 leukemia = test system: K-562 leukemia
LOX IMVI melanoma = test system: LOX IMVI melanoma
MOLT-4 leukemia = test system: MOLT-4 leukemia
NCI-H23 lung = test system: NCI-H23 lung
PC-3 prostate = test system: PC-3 prostate
SK-MEL-2 melanoma = test system: SK-MEL-2 melanoma

| SMILES | GI50 (A549 NSCLC) | TGI (A549 NSCLC) | GI50 (CCRF-CEM leukemia) | TGI (CCRF-CEM leukemia) | GI50 (HCT-116 colon) | TGI (HCT-116 colon) | GI50 (HL-60(TB) leukemia) | TGI (HL-60(TB) leukemia) | GI50 (K-562 leukemia) | TGI (K-562 leukemia) | GI50 (LOX IMVI melanoma) | TGI (LOX IMVI melanoma) | GI50 (MOLT-4 leukemia) | TGI (MOLT-4 leukemia) | GI50 (NCI-H23 lung) | TGI (NCI-H23 lung) | GI50 (PC-3 prostate) | TGI (PC-3 prostate) | GI50 (SK-MEL-2 melanoma) | TGI (SK-MEL-2 melanoma) |
| --- | --- | --- | --- | --- | --- | --- | --- | --- | --- | --- | --- | --- | --- | --- | --- | --- | --- | --- | --- | --- |
| CC[C@H](Nc1nc(N)nc(C)c1C#N)c1nc2cccc(CN(C)c3ncc(C(=O)NO)cn3)c2c(=O)n1-c1ccccc1 | 2060 nM | 11.1 µM | 228 nM | > 50 µM | 364 nM | 2.92 µM | 0.262 µM | 3.48 µM | 390 nM | > 50 µM | 693 nM | 1.35 µM | 204 nM | > 50 µM | 1140 nM | 5.32 µM | 1330 nM | 8.14 µM | 1350 nM | 8.75 µM |
| CCN(CC)c1ccc(/C=C/c2cc(C)c3ccccc3n2)cc1 | 3990 nM | > 100 µM | 2850 nM | 87.8 µM | 4060 nM | 16.4 µM | 3.42 µM | 27.8 µM | 640 nM | 15 µM | 4670 nM | 28.1 µM | 4070 nM | 43.1 µM | 3430 nM | 39.3 µM | 4840 nM | > 100 µM | 2610 nM | 6.78 µM |
| CC(C)(O)c1ccc(N2CCN(c3nnc(Cc4ccccc4)c4ccccc34)CC2)nc1 | 6980 nM | 25.1 µM | 8260 nM | > 93 µM | 8250 nM | 54.1 µM | 7.44 µM | 31.1 µM | 4810 nM | > 72.9 µM | 14000 nM | 35.5 µM | 5400 nM | 25.7 µM | 5680 nM | 28.4 µM | 10700 nM | > 56.5 µM | 9570 nM | 26.2 µM |
| O=C1c2ccccc2C(=O)N1CC1(C(=O)O)NCCS1(=O)=O (centres undefined) |  | > 100 µM |  | > 100 µM |  | > 100 µM |  | > 100 µM |  | > 100 µM |  | > 100 µM |  | > 100 µM |  | > 100 µM |  | > 100 µM |  | > 100 µM |
| Fc1ccc2[nH]cc(Cc3c[nH]c4ccc(F)cc34)c2c1 | 17300 nM | 50.9 µM | 16700 nM | 64.5 µM | 17800 nM | 43.3 µM | 37.4 µM | > 100 µM | 32400 nM | > 100 µM | 16000 nM | 47.1 µM | 1970 nM | 22.1 µM | 22200 nM | 53.5 µM | 15000 nM | 35 µM | 19800 nM | 46.1 µM |
| COc1ccc(C(=O)/C=C/c2ccc(Cl)cc2)cc1S(=O)(=O)Nc1c(N)nc(SC)[nH]c1=O | 2750 nM | 7.62 µM | 2660 nM | 8.97 µM | 1560 nM | 2.94 µM | 3.2 µM | 16.1 µM | 2770 nM | > 100 µM | 1630 nM | 3.22 µM | 3710 nM | 18.7 µM | 2530 nM | 6.36 µM | 2530 nM | 6.85 µM | 12800 nM | 27.9 µM |
| Cc1cc(N2CCCCC2)nc(N(CCNc2ccnc3cc(Cl)ccc23)Cc2ccco2)n1 | 2690 nM | 7.74 µM | 2470 nM | 8.76 µM | 1410 nM | 2.84 µM | 1.91 µM | 3.94 µM | 1540 nM | 4.03 µM | 1660 nM | 3.09 µM | 2290 nM | 5.31 µM | 1910 nM | 4.97 µM | 1690 nM | 3.72 µM | 2060 nM | 4.27 µM |
| CC1=C(C(=O)OCc2ccccc2)C(c2ccc3c(c2)OCO3)n2c(nc3ccccc32)N1 (centres undefined) | 690 nM | > 100 µM | 418 nM | > 100 µM | 420 nM | > 100 µM | 0.341 µM | > 100 µM | 276 nM | > 100 µM | 566 nM | > 100 µM | 753 nM | > 100 µM | > 56400 nM | > 100 µM | 458 nM | > 100 µM |  | > 100 µM |
| O=C(O)[C@@H]1C2CC([C@@H]1C(=O)O)[C@H](N1C(=O)CCC1=O)[C@@H]2Br (some centres undefined) |  | > 100 µM |  | > 100 µM |  | > 100 µM |  | > 100 µM |  | > 100 µM |  | > 100 µM |  | > 100 µM |  | > 100 µM |  | > 100 µM |  | > 100 µM |
| N#CSc1ncnc2nc[nH]c12 | 50200 nM | > 100 µM | 3320 nM | > 100 µM | 3040 nM | > 100 µM | 5.5 µM | > 100 µM | 1240 nM | > 100 µM | 1090 nM | > 91.6 µM | 4280 nM | > 100 µM | 9960 nM | > 100 µM | 28700 nM | > 100 µM | 37600 nM | > 100 µM |
| O=C(Nc1cccc(Cl)c1)Nc1ncc(CCNc2ncnc3ccsc23)s1 | 748 nM and 493 nM | 16.1 µM and > 10 µM | < 10 nM and 3.91 nM | > 100 µM | 1600 nM and 2350 nM | 16.1 µM and > 10 µM | 4.93 µM and 3.37 µM | 28.9 µM and > 10 µM | 3540 nM and 2400 nM | > 100 µM | 1380 nM and 1200 nM | > 43.9 µM | 2850 nM and 1730 nM | > 27.8 µM and 4.99 µM | 2080 nM and 2490 nM | 20.1 µM and > 10 µM | 1050 nM and 1920 nM | 13.8 µM and > 10 µM | 2880 nM and 1760 nM | 10.8 µM and 6.26 µM |
| CCN1C(=O)N(CC)C2C1NN=c1s/c(=C3\C(=O)N(C(C)C)c4ccccc43)c(=O)n12 (centres undefined) | 459 nM | > 100 µM | 377 nM | > 100 µM | 377 nM | > 100 µM | 0.24 µM | 0.63 µM | 329 nM | > 100 µM | 463 nM | > 100 µM | 379 nM | > 100 µM | 421 nM | 30.5 µM | 412 nM | > 100 µM | 1240 nM | > 49.7 µM |
| CCCN(Cc1ccc(F)cc1)c1ccc(CO)c(Cl)c1 | 2120 nM | 16.5 µM | 12200 nM | 30.5 µM | 138 nM | 3.86 µM | 3.27 µM | 19.2 µM | 2220 nM | 15.2 µM | 9490 nM | 21.9 µM | 11200 nM | 30.1 µM | 4240 nM | 20.2 µM | 11600 nM | 24.6 µM | 2990 nM | 13.3 µM |
